The source of these data is publication PMC2654387 (Biochemistry, 2008).

For orientation: koff means the first-order rate constant of dissociation. A higher koff goes with fast dissociation. Usually Km stands for the substrate concentration at which the rate is half of its maximum. What is called kcat is the maximal rate divided by the concentration of active sites.

Like-named read-outs stand apart in the source and are kept apart here.

In experiment [1] the target is T1, BasE (Acinetobacter baumannii, UniProt A0A0D5YGP3). The class given is biochemical.
Experiment [2] deals with T2, DhbE (Bacillus subtilis, UniProt P40871). The class given is binding.
Experiment [3] has as its target T3, EntE (Escherichia coli, UniProt P10378).
Experiment [4] deals with T1, BasE. The format is binding.
Experiment [5] concerns the target T1, BasE. The class given is binding. This is another data set of the same source.
For another experiment, the target named is AsbC (Bacillus anthracis, UniProt Q81RQ7).
Experiment [6] deals with T4, MbtA (Mycobacterium tuberculosis, UniProt P71716).
The target of experiment [7] is T5, YbtE (Yersinia pseudotuberculosis serotype I, UniProt Q3V7P9).
Experiment [8] addresses T6, VibE (Vibrio cholerae serotype O1, UniProt O07899).
In experiment [9] the target is T4, MbtA. This is another data set of the same source.
Experiment [10] addresses T4, MbtA. This is another data set of the same source.
Experiment [11] concerns the target T4, MbtA. Description: biochemical. The class given is binding.
The target in experiment [12] is T6, VibE. Nature of the experiment: biochemical. The class given is binding.
Experiment [13] addresses T3, EntE. As to conditions: cited from earlier work.
In experiment [14] the target is T3, EntE. Nature of the experiment: biochemical. The class given is binding.
Experiment [15] concerns the target T1, BasE. Description: biochemical. The class given is binding.
Experiment [16] deals with T2, DhbE. Description: biochemical. The class given is binding.
Experiment [17] has as its target T5, YbtE. As to conditions: read-out: Calculated Ligand-Protein Dissociation Constant KD2.
The mark [18] stands for this setting: Calculated Ligand-Protein Dissociation Constant KD2.
Setting [19] is: read-out: Calculated Ligand-Protein Dissociation Constant KD2.

T4 sequence (P71716 whole entry, looked up): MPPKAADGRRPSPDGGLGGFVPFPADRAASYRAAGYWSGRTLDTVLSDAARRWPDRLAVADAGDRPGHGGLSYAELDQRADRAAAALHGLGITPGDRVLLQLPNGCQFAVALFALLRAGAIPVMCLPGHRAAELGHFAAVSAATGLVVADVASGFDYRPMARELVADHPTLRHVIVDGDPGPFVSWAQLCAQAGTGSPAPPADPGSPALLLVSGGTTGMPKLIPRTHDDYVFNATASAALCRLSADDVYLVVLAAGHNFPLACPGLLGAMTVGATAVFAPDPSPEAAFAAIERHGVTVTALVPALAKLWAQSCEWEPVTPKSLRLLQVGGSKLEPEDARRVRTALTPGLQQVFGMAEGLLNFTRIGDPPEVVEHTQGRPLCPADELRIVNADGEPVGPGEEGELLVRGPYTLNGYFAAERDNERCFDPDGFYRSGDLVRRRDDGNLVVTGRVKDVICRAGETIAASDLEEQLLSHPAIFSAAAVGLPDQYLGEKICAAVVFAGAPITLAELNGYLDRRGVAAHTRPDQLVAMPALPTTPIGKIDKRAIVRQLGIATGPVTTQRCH
T1 sequence (A0A0D5YGP3 1-542): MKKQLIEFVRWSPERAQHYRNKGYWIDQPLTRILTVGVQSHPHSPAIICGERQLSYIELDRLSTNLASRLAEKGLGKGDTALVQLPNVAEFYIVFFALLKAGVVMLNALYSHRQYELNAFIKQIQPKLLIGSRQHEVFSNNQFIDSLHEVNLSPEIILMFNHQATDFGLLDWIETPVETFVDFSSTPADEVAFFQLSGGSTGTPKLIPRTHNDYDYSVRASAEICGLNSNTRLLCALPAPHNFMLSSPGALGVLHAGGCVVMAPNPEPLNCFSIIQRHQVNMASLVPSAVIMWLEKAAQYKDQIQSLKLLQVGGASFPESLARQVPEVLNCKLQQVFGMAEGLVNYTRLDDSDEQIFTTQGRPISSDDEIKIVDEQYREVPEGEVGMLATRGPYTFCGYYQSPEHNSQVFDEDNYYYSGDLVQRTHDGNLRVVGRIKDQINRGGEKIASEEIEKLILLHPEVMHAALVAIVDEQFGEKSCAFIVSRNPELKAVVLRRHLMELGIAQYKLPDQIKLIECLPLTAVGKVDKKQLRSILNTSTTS
T5 sequence (Q3V7P9 1-525): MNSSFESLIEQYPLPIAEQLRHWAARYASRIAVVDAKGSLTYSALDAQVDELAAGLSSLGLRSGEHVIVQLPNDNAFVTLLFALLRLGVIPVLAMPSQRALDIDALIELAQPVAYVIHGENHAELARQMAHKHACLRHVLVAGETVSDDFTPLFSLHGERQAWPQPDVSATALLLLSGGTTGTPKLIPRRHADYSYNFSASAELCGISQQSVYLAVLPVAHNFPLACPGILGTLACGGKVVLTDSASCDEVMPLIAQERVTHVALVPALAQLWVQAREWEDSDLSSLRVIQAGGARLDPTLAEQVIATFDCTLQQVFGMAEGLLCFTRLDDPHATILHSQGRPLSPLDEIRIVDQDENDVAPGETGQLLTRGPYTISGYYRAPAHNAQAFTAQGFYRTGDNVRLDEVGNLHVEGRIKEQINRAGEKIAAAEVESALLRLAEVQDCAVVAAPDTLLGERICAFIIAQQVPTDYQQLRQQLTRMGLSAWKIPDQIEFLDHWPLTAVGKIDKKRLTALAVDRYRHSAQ
T3 sequence (P10378 whole entry): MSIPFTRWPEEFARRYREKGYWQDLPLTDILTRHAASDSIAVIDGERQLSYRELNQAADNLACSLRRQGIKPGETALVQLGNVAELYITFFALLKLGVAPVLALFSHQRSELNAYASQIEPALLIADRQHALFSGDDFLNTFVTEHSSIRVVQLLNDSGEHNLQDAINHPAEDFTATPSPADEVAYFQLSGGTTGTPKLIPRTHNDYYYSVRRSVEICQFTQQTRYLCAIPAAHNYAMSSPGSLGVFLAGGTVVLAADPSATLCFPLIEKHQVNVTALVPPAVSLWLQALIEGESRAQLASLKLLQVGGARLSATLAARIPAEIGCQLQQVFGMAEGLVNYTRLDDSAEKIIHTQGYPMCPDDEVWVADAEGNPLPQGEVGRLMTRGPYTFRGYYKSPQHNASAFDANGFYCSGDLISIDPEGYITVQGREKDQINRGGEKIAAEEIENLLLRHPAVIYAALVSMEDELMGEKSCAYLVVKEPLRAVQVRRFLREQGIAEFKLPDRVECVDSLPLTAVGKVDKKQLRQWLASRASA
T6 sequence (O07899 whole entry): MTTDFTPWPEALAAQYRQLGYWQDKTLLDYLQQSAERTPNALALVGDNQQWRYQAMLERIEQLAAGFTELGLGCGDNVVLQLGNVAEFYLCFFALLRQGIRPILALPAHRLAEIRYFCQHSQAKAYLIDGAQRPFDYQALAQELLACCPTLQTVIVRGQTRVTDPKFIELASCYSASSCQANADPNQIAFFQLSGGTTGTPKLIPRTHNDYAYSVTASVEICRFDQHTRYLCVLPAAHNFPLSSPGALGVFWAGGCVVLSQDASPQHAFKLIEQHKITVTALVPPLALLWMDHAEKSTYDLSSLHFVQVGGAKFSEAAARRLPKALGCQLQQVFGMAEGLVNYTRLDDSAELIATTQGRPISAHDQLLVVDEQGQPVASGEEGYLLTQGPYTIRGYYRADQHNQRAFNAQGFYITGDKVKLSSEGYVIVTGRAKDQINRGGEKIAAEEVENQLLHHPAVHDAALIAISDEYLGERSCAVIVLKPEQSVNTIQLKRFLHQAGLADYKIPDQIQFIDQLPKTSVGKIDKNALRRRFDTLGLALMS
T2 sequence (P40871 whole entry): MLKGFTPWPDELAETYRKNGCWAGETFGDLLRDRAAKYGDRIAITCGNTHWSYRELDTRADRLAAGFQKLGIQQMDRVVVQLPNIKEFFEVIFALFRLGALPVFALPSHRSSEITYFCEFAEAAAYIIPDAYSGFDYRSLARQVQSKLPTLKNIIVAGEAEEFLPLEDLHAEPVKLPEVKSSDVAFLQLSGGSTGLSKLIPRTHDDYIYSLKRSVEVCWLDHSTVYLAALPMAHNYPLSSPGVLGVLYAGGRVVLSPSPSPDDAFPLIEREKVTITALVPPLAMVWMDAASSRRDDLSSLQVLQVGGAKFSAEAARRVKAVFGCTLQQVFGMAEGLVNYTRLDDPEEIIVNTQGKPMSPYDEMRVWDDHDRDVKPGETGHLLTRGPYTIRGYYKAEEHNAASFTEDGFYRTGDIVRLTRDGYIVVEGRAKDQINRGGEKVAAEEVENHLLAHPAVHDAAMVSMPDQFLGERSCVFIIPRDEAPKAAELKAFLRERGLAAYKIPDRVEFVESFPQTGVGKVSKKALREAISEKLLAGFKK
Chain of AsbC (Q81RQ7 whole entry, looked up): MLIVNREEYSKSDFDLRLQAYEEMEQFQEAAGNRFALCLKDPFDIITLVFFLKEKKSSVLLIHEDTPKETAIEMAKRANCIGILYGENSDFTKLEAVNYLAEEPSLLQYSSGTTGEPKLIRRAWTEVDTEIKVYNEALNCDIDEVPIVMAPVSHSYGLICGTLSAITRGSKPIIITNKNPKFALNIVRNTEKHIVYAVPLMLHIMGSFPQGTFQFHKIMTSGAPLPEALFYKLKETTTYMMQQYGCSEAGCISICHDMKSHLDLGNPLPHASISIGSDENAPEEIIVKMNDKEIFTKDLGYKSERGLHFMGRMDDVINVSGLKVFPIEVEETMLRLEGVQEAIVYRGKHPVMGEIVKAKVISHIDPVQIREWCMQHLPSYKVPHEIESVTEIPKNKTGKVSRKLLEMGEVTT

For the compound `O=C(O)c1ccc(O)c(O)c1` [3,4-dihydroxybenzoic acid], the “kcat (pyrophosphate exchange)” value at BasE [1] is under 0.017 s⁻¹.

In the case of `CCN(CC)CC.Nc1ncnc2c1ncn2[C@@H]1O[C@H](COS(=O)(=O)NC(=O)c2ccccc2O)[C@@H](O)[C@H]1OCCOCCOCCNC(=O)c1ccc2c(c1)C(=O)OC21c2ccc(O)cc2Oc2cc(O)ccc21` [compound 6, 2′-O-{2-[2-(2-{[(Fluorescein-5-yl)carbonyl]amino}ethoxy)ethoxy]ethoxy}-5′-O-[N-(2-hydroxybenzoyl)sulfamoyl]adenosine Triethylammonium Salt], the AB at DhbE [2] was 0.213 ± 0.005; on EntE [3], 0.210 ± 0.001; at BasE [5], 0.222 ± 0.002; on YbtE [7] it was 0.240 ± 0.002; at VibE [8], 0.200 ± 0.002. For the same compound, the Kd came out at 0.369 ± 0.033 µM on DhbE [2], 0.221 ± 0.008 µM on EntE [3], 0.0576 ± 0.0034 µM at YbtE [7] and 0.0855 ± 0.0056 µM on VibE [8]. The Q is listed as 0.89 on DhbE [2]; 1.21 on EntE [3]; 1.02 at BasE [5]; 1.07 at MbtA [6]; 1.07 at YbtE [7]; 1.27 on VibE [8]. Further, the TΔS worked out at 4.41 ± 0.18 kcal/mol on BasE [4] and 0.71 ± 0.80 kcal/mol on MbtA [10]. Besides, the ΔH on BasE [4] was -4.88 ± 0.17 kcal/mol; at MbtA [10], -9.80 ± 1.06 kcal/mol. Moreover, the “change of fluorescence anisotropy of the probe (binding to AsbC)” value on AsbC was “did not show a significant change”. Moreover, the off-rate constant (koff) at MbtA [9] stood at 0.0085 ± 0.00033 s⁻¹.

Regarding `O=C(O)c1ccccc1O` [compound 20, salicylic acid], the Kd at MbtA [11] was 11.9 µM; on VibE [12], 36.6 µM; at EntE [14] (setting [18]) it was 211 µM; at BasE [15] (setting [18]), 57.5 µM. Also, the Km on EntE [13] was 91 µM. In addition, on EntE [13], the turnover number (kcat) is 2.5 s⁻¹.

As for `Nc1ncnc2c1ncn2[C@@H]1O[C@H](COS(=O)(=O)NC(=O)c2ccccc2O)[C@@H](O)[C@H]1O` [compound 4, 5′-O-[N-(salicyl)sulfamoyl]adenosine], the Kd on EntE [14] (setting [18]) is 0.0336 ± 0.006 µM; at BasE [15] (setting [18]), 0.0167 ± 0.0031 µM.

For the compound `O=C(O)c1cccc(O)c1O` [compound 21, 2,3-dihydroxybenzoic acid], the Kd at MbtA [11] is over 300 µM; at DhbE [16], 3.76 µM; on VibE [12] it was 1.64 µM; at EntE [14] (setting [18]), 8.18 µM; at BasE [15] (setting [18]) it was 2.63 µM.

As to `Nc1ncnc2c1ncn2[C@@H]1O[C@H](COP(=O)(O)O)[C@@H](O)[C@H]1O` [compound 22, adenosine monophosphate], the Kd on MbtA [11] (setting [19]) is 183 µM; at VibE [12] it was 12 µM; on VibE [12] (setting [19]) it was 12 µM; on EntE [14] (setting [19]), 125 µM; on BasE [15] (setting [19]), 173 µM; on YbtE [17] it was 260 µM.

As to `O=C(O)c1ccccc1` [benzoic acid], on BasE [1], the “kcat (pyrophosphate exchange)” value was under 0.017 s⁻¹. For the same compound, at EntE [13], the turnover number (kcat) is under 0.017 s⁻¹.
